Laboratory results: patent publication US6589963B2, “Heterocyclic compounds and salts thereof and medicinal use of the same” (Kyoto Pharmaceutical Industries, Ltd., priority 1999, dated 2003)

Experiments:
male KK-A^y mice [1] = test: Hypotriglyceridemic action; type: in vivo, mouse; conditions: 4 consecutive days, non-fasting, about 24 hours after final administration, vs control group
Protocol: (§1) The triglyceride level in the plasma was measured using a commercially available assay kit (triglyceride G-test WAKO, Wako Pure Chemical Industries, Ltd.). The mice were grouped (5 mice per group) into a control group and an administration group, such that the mean and the standard deviation of the triglyceride level in the plasma of each group were nearly the same. Each test compound was suspended or dissolved in 5% gum arabic solution and administered orally to the administration group for 4 consecutive days from the next day. The 5% gum arabic solution was orally administered to the control group. Blood was drawn from the tail vein under a non-fasting state about 24 hours after the final administration and the triglyceride level in the plasma was measured. The decrease in the plasma triglyceride level was calculated from the following formula.
Decrease (%) in plasma triglyceride level=[(mean plasma triglyceride level of control group−mean plasma triglyceride level of test compound administration group)/mean plasma triglyceride level of control group]×100

male KK-A^y mice [2] = test: Hypoglycemic action and hypoinsulinemic action in insulin resistant diabetic mouse; type: in vivo; conditions: 10 mg/kg orally once a day for 4 days, 24 hours after final administration, non-fasting; for Plasma glucose: control 507; for Insulin: plasma, control 43
Protocol: Blood was drawn from the tail vein of 12-week-old male KK-A^y mice under a non-fasting state, and the glucose level in the plasma was measured using a commercially available assay kit (glucose CII-test WAKO, Wako Pure Chemical Industries, Ltd.). The mice were grouped (5 mice per group) into a control group and an administration group, such that the mean glucose level in the plasma and the average body weight of each group, as well as the standard deviation thereof were nearly the same. The test compound (10 mg/kg) was suspended in 5% aqueous gum arabic solution and orally administered once a day to the administration group for 4 days from the next day. The 5% aqueous gum arabic solution was orally administered to the control group. Blood was drawn from the tail vein under a non-fasting state 24 hours after the final administration. The concentrations of plasma glucose and plasma insulin were measured.

male KK-A^y mice [3] = test: Hypoglycemic action (method B); type: in vivo, mouse; conditions: 0.1 w/w % in powder feed for 4 days, blood at day 5, non-fasting, vs control group
Protocol: The glucose level in the plasma was measured using a commercially available assay kit (glucose CII-test WAKO, Wako Pure Chemical Industries, Ltd.). The mice were grouped (5 mice per group) into a control group and an administration group, such that the mean and the standard deviation of the glucose level in the plasma of each group were nearly the same. Each test compound was admixed in a proportion of 0.1 w/w % with a powder feed (CE-2, Clea) and the feed mixture was fed to the administration group for 4 days from the next day. A regular powder feed was fed to the control group. At day 5, blood was drawn from the tail vein under a non-fasting state and the glucose level in the plasma was measured. The decrease in the plasma glucose level was calculated from the following formula.
(§2) Decrease (%) in plasma glucose level=[(mean plasma glucose level of control group−mean plasma glucose level of test compound administration group)/mean plasma glucose level of control group]×100

3T3-L1 cells = test: Triglyceride accumulation promoting action in 3T3-L1 cells; type: cell-based; conditions: 10^−7 M test compound with 10 ng/ml insulin, 4 days; relative to control
Protocol: A culture medium of 80% confluent 3T3-L1 cells was removed and the cells were dissociated with 0.25% trypsin-EDTA solution. 5% FBS-DMEM (the same amount as the removed medium) was added and the obtained cell suspension was centrifuged at 25° C., 100×g for 1 min to give cell sediment and the supernatant was removed. The cells were re-suspended in a suitable amount of 5% FBS-DMEM medium and the cells were counted. 5% FBS-DMEM medium was added to adjust the concentration to 1×10^5 cells/ml and the mixture was dispensed by 1 ml to a 24 well plate. The cells were cultured with aeration of 5% CO2 at 37° C. for 2 days. Upon confirmation of a post-confluent state, the culture supernatant was changed to a medium containing 0.5 mM-IBMX, and the cells were cultured for 2 days. Then, the medium was changed to a medium containing 10 ng/ml insulin and 10^−7 M test compound and the cells were cultured further for 4 days. After removing the culture supernatant, the cells were lysed in a 0.1% SDS solution and the triglyceride amount was measured. The triglyceride accumulation (%) due to the potentiation of insulin activity by the test compound was calculated from the following formula.
[(triglyceride amount with addition of test compound−triglyceride amount of control)/triglyceride amount of control]×100

male KK-A^y mice [4] = test: Hypoglycemic action (method A); type: in vivo, mouse; conditions: 4 consecutive days, non-fasting, about 24 hours after final administration, vs control group
Protocol: as §1, with “glucose” for “triglyceride”, “(glucose CII-test” for “(triglyceride G-test”
as §2

SMILES	Decrease (%) in plasma triglyceride level (male KK-A^y mice [1]; dose 10 mg/kg orally)	Decrease (%) in plasma triglyceride level (male KK-A^y mice [1]; dose 30 mg/kg orally)	Plasma glucose (male KK-A^y mice [2])	Insulin (male KK-A^y mice [2])	Decrease (%) in plasma glucose level (male KK-A^y mice [3])	Triglyceride accumulation (%) (3T3-L1 cells)	Decrease (%) in plasma glucose level (male KK-A^y mice [4]; dose 10 mg/kg orally)	Decrease (%) in plasma glucose level (male KK-A^y mice [4]; dose 30 mg/kg orally)
Cc1oc(-c2ccccc2)nc1CCOc1ccc2c(c1)CN(Cc1ccccc1)[C@H](C(=O)O)C2 [Example 2, 2-Benzyl-7-[2-(5-methyl-2-phenyloxazol-4-yl)ethoxy]-1,2,3,4-tetrahydroisoquinoline-(3S)-carboxylic acid]	39.5%	54.3%	313 mg/dL	26 ng/mL	69.2%	260.4%	38.3%	60.6%
Cc1oc(-c2ccccc2)nc1CCOc1ccc2c(c1)CN(C(=O)c1ccccc1)[C@H](C(=O)O)C2 [Example 10, 2-Benzoyl-7-[2-(5-methyl-2-phenyloxazol-4-yl)ethoxy]-1,2,3,4-tetrahydroisoquinoline-(3S)-carboxylic acid]					42.4%			
Cc1oc(-c2ccccc2)nc1CCOc1ccc2c(c1)CN(CC(C)(C)C)[C@H](C(=O)O)C2 [Example 23, 2-(2,2-Dimethylpropyl)-7-[2-(5-methyl-2-phenyloxazol-4-yl)ethoxy]-1,2,3,4-tetrahydroisoquinoline-(3S.)-carboxylic acid]	30.4%	50.4%	382 mg/dL	28 ng/mL		214.2%	24.3%	42.9%
Cc1oc(C(C)(C)C)nc1CCOc1ccc2c(c1)CN(Cc1ccccc1)[C@H](C(=O)O)C2 [Example 32, 2-Benzyl-7-[2-(5-methyl-2-tert-butyloxazol-4-yl)ethoxy]-1,2,3,4-tetrahydroisoquinoline-(3S)-carboxylic acid]		32.5%	402 mg/dL	30 ng/mL		181.2%		36.4%
C=CCCN1Cc2cc(OCCc3nc(-c4ccccc4)oc3C)ccc2C[C@H]1C(=O)O [Example 42, 2-(3-Butenyl)-7-[2-(5-methyl-2-phenyloxazol-4-yl)ethoxy]-1,2,3,4-tetrahydroisoquinoline-(3S)-carboxylic acid]		31.6%	308 mg/dL	27 ng/mL		193.6%	27.6%	49.6%
